Data taken from article PMC12820599, “Structural characterisation of nucleotide sugar short‐chain dehydrogenases/reductases from the thermophilic pseudomurein‐containing methanogen Methanothermobacter thermautotrophicus ΔH” (The Febs Journal, 2025).

Assays:
Assay type in all cases: binding
Mth375 [1] = molecular target: T1, Mth375 (Methanothermobacter thermautotrophicus, UniProt O26475); assay: X-ray crystal structure ([…] Å); details: coenzyme site (Rossmann fold); no coenzyme added (co-purified); redox state not settled (NAD/NADH/NAD(H) printed); UDP bound
T1 construct: gene MTH_375; recombinant hexahistidine-tagged (pET100D), E. coli BL21-Rosetta 2; 332 residues seen; dimer; Cys131 (and Cys13 in Mth375_NU) modified by beta-mercaptoethanol

Mth373 [2] = molecular target: T2, Mth373 (Methanothermobacter thermautotrophicus, UniProt O26473); assay: X-ray crystal structure ([…] and […] Å); details: 2.0 mM NADH added; coenzyme site of each monomer; printed as NADH, NAD(H) and NAD
T2 construct: gene MTH_373; recombinant hexahistidine-tagged, E. coli LOBSTR BL21*; 311-residue monomer; dimer

Mth373 [3] = molecular target: T2, Mth373; assay: X-ray crystal structure ([…] Å); details: co-crystallised with 1.0 mM UDP and 2.0 mM NADH; active site of both monomers; pH 5.0; UDP also in one monomer of 9AR1
Mth375 [4] = molecular target: T1, Mth375; assay: X-ray crystal structure ([…] and […] Å); details: co-crystallised with 1.0 mM UDP; active site; NAD(H) (6PNL) or AMP (6PMH) also bound; 21 °C

T2 sequence (O26473 entry or part of it): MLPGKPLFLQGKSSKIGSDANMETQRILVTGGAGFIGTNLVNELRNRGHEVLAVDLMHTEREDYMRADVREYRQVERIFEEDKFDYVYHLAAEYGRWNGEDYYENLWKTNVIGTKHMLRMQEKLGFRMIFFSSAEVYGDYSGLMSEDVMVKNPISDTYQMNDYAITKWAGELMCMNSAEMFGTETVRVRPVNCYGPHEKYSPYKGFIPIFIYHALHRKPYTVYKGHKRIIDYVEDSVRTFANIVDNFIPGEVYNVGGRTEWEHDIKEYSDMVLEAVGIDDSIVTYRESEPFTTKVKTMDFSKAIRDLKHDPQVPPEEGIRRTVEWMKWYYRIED
T1 sequence (O26475 entry or part of it): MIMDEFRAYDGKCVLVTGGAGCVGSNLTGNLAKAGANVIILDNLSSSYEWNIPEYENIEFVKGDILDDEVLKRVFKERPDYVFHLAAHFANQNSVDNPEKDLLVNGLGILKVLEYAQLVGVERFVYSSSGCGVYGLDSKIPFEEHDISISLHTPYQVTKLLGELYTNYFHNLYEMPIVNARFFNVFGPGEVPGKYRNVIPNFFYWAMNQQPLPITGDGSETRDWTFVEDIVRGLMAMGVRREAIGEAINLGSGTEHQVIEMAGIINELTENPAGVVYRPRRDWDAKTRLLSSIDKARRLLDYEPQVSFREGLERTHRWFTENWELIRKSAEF

| Structure (SMILES) | X-ray crystal structure (2.01 Å) (Mth375 [1]) | X-ray crystal structure (1.96 and 2.00 Å) (Mth373 [2]) | X-ray crystal structure (2.00 Å) (Mth373 [3]) | X-ray crystal structure (2.01 and 2.30 Å) (Mth375 [4]) |
| --- | --- | --- | --- | --- |
| NC(=O)C1=CN([C@@H]2O[C@H](COP(=O)(O)OP(=O)(O)OC[C@H]3O[C@@H](n4cnc5c(N)ncnc54)[C@H](O)[C@@H]3O)[C@@H](O)[C@H]2O)C=CC1 [NADH] | Mth375_NU contained a single NADH molecule | Both complexes have interpretable electron density for a molecule of NADH | – | – |
| O=c1ccn([C@@H]2O[C@H](COP(=O)(O)OP(=O)(O)O)[C@@H](O)[C@H]2O)c(=O)[nH]1 [UDP] | – | – | A single molecule of UDP was bound to each active site of the Mth373_NU dimer | A single molecule of UDP was bound to each Mth375 complex |
